doi:10.1101/2023.10.03.560722, “Drug Discovery in Low Data Regimes: Leveraging a Computational Pipeline for the Discovery of Novel SARS-CoV-2 Nsp14-MTase Inhibitors” (bioRxiv, 2024)
Like-named read-outs stand apart in the source and are kept apart here.

Legend:
Assay in all cases: human MTase selectivity panel
Format in all cases: biochemical
SUV39H1 = target: T1, SUV39H1 (Homo sapiens, UniProt O43463)
T1 sequence (O43463 1-412): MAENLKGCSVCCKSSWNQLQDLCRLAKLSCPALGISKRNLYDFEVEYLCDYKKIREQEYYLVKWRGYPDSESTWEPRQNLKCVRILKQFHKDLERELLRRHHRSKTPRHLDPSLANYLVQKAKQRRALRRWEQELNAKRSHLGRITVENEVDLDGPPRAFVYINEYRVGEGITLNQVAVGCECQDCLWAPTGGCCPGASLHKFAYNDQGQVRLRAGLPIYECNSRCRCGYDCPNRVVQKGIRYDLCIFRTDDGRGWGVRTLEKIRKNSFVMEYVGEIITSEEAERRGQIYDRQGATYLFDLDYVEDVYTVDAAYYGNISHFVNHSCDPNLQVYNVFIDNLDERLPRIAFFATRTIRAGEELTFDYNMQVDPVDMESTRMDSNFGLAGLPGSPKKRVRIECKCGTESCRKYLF

BCDIN3D = target: T2, BCDIN3D (Homo sapiens, UniProt Q7Z5W3)
T2 sequence (Q7Z5W3 1-292): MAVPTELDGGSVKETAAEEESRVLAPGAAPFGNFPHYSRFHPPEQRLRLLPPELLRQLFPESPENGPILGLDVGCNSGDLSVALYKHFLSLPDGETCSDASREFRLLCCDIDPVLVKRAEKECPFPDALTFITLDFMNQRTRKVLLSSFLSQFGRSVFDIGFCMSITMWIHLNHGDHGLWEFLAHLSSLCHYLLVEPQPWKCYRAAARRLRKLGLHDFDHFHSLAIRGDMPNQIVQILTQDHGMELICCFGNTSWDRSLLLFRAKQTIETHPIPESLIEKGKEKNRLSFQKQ

NSD2 = target: T3, NSD2 (Homo sapiens, UniProt O96028)
T3 sequence (O96028 1-1365): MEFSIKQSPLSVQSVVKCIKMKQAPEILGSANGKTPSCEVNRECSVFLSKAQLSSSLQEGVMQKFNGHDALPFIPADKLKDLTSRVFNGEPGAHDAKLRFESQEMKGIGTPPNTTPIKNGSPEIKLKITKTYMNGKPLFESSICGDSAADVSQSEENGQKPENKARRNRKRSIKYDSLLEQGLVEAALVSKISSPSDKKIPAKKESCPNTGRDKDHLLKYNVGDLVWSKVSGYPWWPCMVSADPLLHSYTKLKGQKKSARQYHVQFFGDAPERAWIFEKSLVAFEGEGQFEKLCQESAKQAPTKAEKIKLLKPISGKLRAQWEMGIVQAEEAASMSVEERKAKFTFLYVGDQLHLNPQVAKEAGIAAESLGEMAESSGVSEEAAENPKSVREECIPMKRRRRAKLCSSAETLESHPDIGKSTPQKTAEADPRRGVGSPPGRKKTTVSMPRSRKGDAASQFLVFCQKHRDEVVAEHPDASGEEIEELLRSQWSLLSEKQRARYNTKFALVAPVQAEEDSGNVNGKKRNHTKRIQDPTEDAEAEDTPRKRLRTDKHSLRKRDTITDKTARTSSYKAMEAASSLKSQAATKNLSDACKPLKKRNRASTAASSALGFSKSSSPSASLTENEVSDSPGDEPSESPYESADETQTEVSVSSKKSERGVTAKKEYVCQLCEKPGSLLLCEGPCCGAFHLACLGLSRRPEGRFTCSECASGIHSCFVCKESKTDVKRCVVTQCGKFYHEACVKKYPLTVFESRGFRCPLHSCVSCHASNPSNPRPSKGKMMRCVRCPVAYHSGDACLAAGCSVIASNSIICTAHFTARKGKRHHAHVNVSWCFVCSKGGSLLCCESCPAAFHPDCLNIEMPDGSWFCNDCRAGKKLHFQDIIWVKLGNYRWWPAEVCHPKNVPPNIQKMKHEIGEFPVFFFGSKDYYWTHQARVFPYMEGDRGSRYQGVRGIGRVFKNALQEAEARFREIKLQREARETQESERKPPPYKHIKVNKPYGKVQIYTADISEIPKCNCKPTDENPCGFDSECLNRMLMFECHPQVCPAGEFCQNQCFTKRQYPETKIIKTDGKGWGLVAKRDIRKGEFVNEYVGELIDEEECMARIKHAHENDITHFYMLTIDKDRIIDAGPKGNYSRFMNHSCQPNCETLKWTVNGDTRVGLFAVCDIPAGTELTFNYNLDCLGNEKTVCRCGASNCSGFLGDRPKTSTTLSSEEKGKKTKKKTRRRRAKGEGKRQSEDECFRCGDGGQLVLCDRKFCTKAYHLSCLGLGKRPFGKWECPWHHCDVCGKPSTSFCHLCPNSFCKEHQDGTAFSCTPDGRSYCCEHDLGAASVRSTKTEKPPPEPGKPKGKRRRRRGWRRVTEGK

[1] = average ± SD, read-out: Activity (%) at 10 µM Average
[2] = read-out: Activity (%) at 10 µM Replicate 1
[3] = read-out: Activity (%) at 10 µM Replicate 2
[4] = read-out: Activity (%) at 10 µM Replicate 3

Molecule Nc1ncnc2c1ncn2[C@@H]1O[C@H](CSCc2ccc(Cl)cc2)[C@@H](O)[C@H]1O [NSC620333] has an activity at 10 µM (SUV39H1; [1]) of 96 ± 4%, an activity at 10 µM (SUV39H1; [2]) of 99% and an activity at 10 µM (SUV39H1; [3]) of 91%. For the same molecule, the activity at 10 µM (SUV39H1; [4]) was 97%, the activity at 10 µM (BCDIN3D; [1]) was 62 ± 5% and the activity at 10 µM (BCDIN3D; [2]) was 57%. For the same molecule, the activity at 10 µM (BCDIN3D; [3]) was 66%, the activity at 10 µM (BCDIN3D; [4]) was 64% and the activity at 10 µM (NSD2; [1]) was 92 ± 7%. For the same molecule, the activity at 10 µM (NSD2; [2]) was 100%, the activity at 10 µM (NSD2; [3]) was 86% and the activity at 10 µM (NSD2; [4]) was 90%.
